Calls of active or inactive are those of the source. The rule behind the calls is not given here.
Tests used:
[1] = biological target: T1, Macrophage scavenger receptor types I and II (Mus musculus) (UniProt P30204); assay: (§1) Antagonist activity at SRA in RM1-OVA tumor bearing wild type C57BL/6 mouse derived CD11bpositiveLy6ChighLy6Gnegative myeloid-derived suppressive cells co-cultured with splenocytes assessed as reduction in protein-mediated inhibition of anti CD3/CD28 antibody-induced T-cell proliferation at 10 to 20 uM preincubated for 2 hrs followed by splenocytes addition measured after 72 hrs by [3H]-thymidine incorporation assay
T1 sequence (whole entry): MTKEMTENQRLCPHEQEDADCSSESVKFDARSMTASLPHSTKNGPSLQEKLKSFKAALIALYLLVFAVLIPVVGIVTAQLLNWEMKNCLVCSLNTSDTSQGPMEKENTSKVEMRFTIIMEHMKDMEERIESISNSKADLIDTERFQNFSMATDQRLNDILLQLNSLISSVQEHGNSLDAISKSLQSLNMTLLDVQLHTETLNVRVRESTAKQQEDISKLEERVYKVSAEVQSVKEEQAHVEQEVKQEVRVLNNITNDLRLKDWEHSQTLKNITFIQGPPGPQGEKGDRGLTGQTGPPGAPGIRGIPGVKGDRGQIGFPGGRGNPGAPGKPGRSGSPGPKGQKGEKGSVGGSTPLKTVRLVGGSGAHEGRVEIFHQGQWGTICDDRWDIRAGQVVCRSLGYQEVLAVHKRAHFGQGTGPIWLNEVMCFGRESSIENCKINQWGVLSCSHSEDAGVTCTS

[2] = biological target: T1, Macrophage scavenger receptor types I and II (Mus musculus); assay: as §1, with “activation by measuring IL-2 secretion” for “proliferation”, “pretreated” for “preincubated”, “56” for “72”, “ELISA” for “[3H]-thymidine incorporation assay”
[3] = biological target: T1, Macrophage scavenger receptor types I and II (Mus musculus); assay: Antagonist activity at mouse recombinant SRA extracellular domain expressed in baculovirus infected Sf21 insect cells assessed as inhibition of protein-induced reduction of IL2 gene promoter activation in anti CD3/CD28 antibody activated wild type C57BL/6 mouse B3Z T-cells at 50 uM after 5 hrs by beta-galactosidase reporter gene assay
[4] = biological target: T1, Macrophage scavenger receptor types I and II (Mus musculus); assay: as §1, with “activation by measuring IL-2 secretion pretreated” for “proliferation at 10 to 20 uM preincubated”, “56” for “72”, “ELISA” for “[3H]-thymidine incorporation assay”

Row | inhibition [1] | inhibition [2] | inhibition [3] | inhibition [4] | SMILES
1 | Active | Active | Active |  | O=C(O)c1ccc2c(c1)C(=O)c1cccc(O)c1C2=O
2 | Active |  | Active | Dose-dependent effect | O=C1c2cccc(O)c2C(=O)c2c(O)cccc21
3 | Active |  |  |  | O=C(O)c1cc(O)c2c(c1)C(=O)c1cccc(O)c1C2=O

Source: ChEMBL document CHEMBL3875186, “Design, synthesis, and characterization of rhein analogs as novel inhibitors of scavenger receptor A” (Bioorg Med Chem Lett, 2017)
